Paper PMC8297954 (Frontiers in Microbiology, 2021)
“Also recorded” adds a separate entry of the source. Where two headings read alike, the source gives them in different places.

How the values were obtained:
SARS CoV 3a protein = details: Xenopus oocytes ref Schwarz et al., 2014; cited from earlier work
MHV E protein = details: cited from earlier work
MHV = details: cited from earlier work
HCoV-229E E protein = details: cited from earlier work
HCoV-229E = details: cited from earlier work
[1] = system: viral protein U of human immunodeficiency type 1 virus; details: cited from earlier work
[2] = system: transmembrane domain of SARS CoV E protein; details: lipid bilayers ref Torres et al., 2007; cited from earlier work

Compound: O=c1c(O[C@@H]2O[C@@H](CO)[C@H](O)[C@H]2O)c(-c2ccc(O)cc2)oc2cc(O)cc(O)c12 [juglanin]
- inhibition of 3a ion channel (SARS CoV 3a protein): most efficient

Compound: Oc1ccc(/C=C/c2cc(O)cc(O)c2)cc1 [Resveratrol, resveratrol]
- MTT pRK control (HEK293 cells): neutral

Compound: O=C1C[C@@H](c2ccc(O)cc2)Oc2cc(O)cc(O)c21 [Naringenin, naringenin]
- MTT pRK control (HEK293 cells; human): 10–50 ↑

Compound: CC(N)C12CC3CC(CC(C3)C1)C2 (stereo not shown) [Rimantadine, rimantadine, reference compound]
- MTT pRK control (HEK293 cells): neutral

Compound: NC(N)=NC(=O)c1nc(Cl)c(N2CCCCCC2)nc1N [HMA, 5-(N,N-hexamethylene)amiloride]
- inhibition of E protein ion channel conductance (MHV E protein): inhibits
- inhibition of virus replication (MHV): inhibits replication
- effect on viability of control cells at increasing concentrations (HEK293 cells): cytotoxic
- MTT pRK control (HEK293 cells; human): 10–50 ↓
- inhibition of E protein ion channel conductance (HCoV-229E E protein): inhibits
- inhibition of virus replication (HCoV-229E): inhibits replication

Compound: O=c1c(-c2ccc(O)cc2)coc2cc(O)cc(O)c12 [Genistein, genistein]
- effect on viability of control cells at increasing concentrations (HEK293 cells): proliferative
- MTT pRK control (HEK293 cells; human): 20–50 ↑
- inhibition of viral protein U [1]: inhibits; also recorded: able to inhibit

Compound: (–)epicatechin
- inhibition of viral protein U [1]: not

Compound: NC12CC3CC(CC(C3)C1)C2 [Amantadine, amantadine, reference compound]
- MTT pRK control (HEK293 cells): neutral
- inhibition of wild-type transmembrane peptides [2]: inhibited

Compound: O=c1c(O)c(-c2ccc(O)cc2)oc2cc(O)cc(O)c12 [Kaempferol, kaempferol]
- inhibition of 3a ion channel (SARS CoV 3a protein): blocks
- effect on viability of control cells at increasing concentrations (HEK293 cells): proliferative
- MTT pRK control (HEK293 cells; human): 5–50 ↑
- inhibition of viral protein U [1]: not

Compound: CCCCC[C@H](O)CC(=O)CCc1ccc(O)c(OC)c1 [6-Gingerol, 6-gingerol]
- MTT pRK control (HEK293 cells): neutral

Compound: O=c1cc(-c2ccc(O)cc2)oc2cc(O)cc(O)c12 [Apigenin, apigenin]
- effect on viability of control cells at increasing concentrations (HEK293 cells): cytotoxic
- MTT pRK control (HEK293 cells; human): 5–10↑ 20–50↓
- concentrations that were cytotoxic / induced cell death (HEK293 cells; human): 20 to 50 µM

Compound: COc1ccc(-c2cc(=O)c3c(OC)c(OC)c(OC)c(OC)c3o2)cc1OC [Nobiletin, nobiletin]
- MTT pRK control (HEK293 cells; human): 5–50 ↑

Compound: CCCCCCC[C@H](O)CC(=O)CCc1ccc(O)c(OC)c1 [8-Gingerol, 8-gingerol]
- MTT pRK control (HEK293 cells; human): 50 ↓

Compound: O=c1c(O)c(-c2ccc(O)c(O)c2)oc2cc(O)cc(O)c12 [Quercetin, quercetin]
- effect on viability of control cells at increasing concentrations (HEK293 cells): proliferative
- MTT pRK control (HEK293 cells; human): 10–50 ↑
- inhibition of viral protein U [1]: not

Compound: O=C(O[C@@H]1Cc2c(O)cc(O)cc2O[C@@H]1c1cc(O)c(O)c(O)c1)c1cc(O)c(O)c(O)c1 [EGCG, epigallocatechin gallate]
- MTT pRK control (HEK293 cells; human): 5–50 ↑

Compound: (–)epigallocatechin
- inhibition of viral protein U [1]: not
